The record followed here is patent US9193689B2, “3-aryl-5-substituted-isoquinolin-1-one compounds and their therapeutic use” (INSTITUTE OF CANCER RESEARCH: ROYAL CANCER HOSPITAL (THE), priority 2012, dated 2015).

Where “and” joins values, the source holds several entries; their conditions need not be identical. Equal entries are not always repeated.

Usually IC50 stands for the concentration at which inhibition is half-maximal. Low values mean greater potency in that assay, high ones weaker potency in that assay.

The assay deals with TNKS1 (Homo sapiens, UniProt O95271). The experiment in a line: TNKS1/PARP Biochemical Assay (TNKS1).
As for `Cc1cccc2c(=O)[nH]c(-c3ccc(CN4CCNCC4C)cc3)cc12` (single isomer, unassigned) [IQ-051-2], the half-inhibitory concentration (IC50) was less than 50 nM.

Molecule `Cc1cccc2c(=O)[nH]c(-c3ccc(C(=O)N(C)C4CCN(C)C4)cc3)cc12` (single isomer, unassigned) [IQ-205-1] came in with an IC50 of less than 50 nM. The result for `Cc1cccc2c(=O)[nH]c(-c3ccc(C(=O)N(C)C4CCN(C)C4)cc3)cc12` (single isomer, unassigned) [IQ-205-2] reads less than 20 nM. `Cc1cc(F)cc2c(=O)[nH]c(-c3ccc(C(=O)N(C)C4CCN(C)C4)cc3)cc12` (single isomer, unassigned) [IQ-207-1]: the IC50 is less than 50 nM.

`Cc1cc(F)cc2c(=O)[nH]c(-c3ccc(C(=O)N(C)C4CCN(C)C4)cc3)cc12` (single isomer, unassigned) [IQ-207-2] yielded a half-maximal inhibitory concentration (IC50) of less than 50 nM. As for `CN1CCN(c2ccc(-c3cc4c(Cl)cccc4c(=O)[nH]3)c[n+]2[O-])CC1` [IQ-002-2, 5-Chloro-3-[6-(4-methyl-piperazin-1-yl)-1-oxy-pyridin-3-yl]-2H-isoquinolin-1-one], the figure is less than 500 nM; as for `Cc1cccc2c(=O)[nH]c(-c3ccc(N4CCN(C5CC5)CC4)nc3)cc12` [IQ-004], less than 20 nM; as for `Cc1cccc2c(=O)[nH]c(-c3ccc(N4CCC(N(C)C)CC4)nc3)cc12` [IQ-006], less than 20 nM. For `CN(C)C1CCN(c2ccc(-c3cc4c(Cl)cccc4c(=O)[nH]3)cn2)CC1` [IQ-007], the IC50 was less than 50 nM. The result for `Cc1cccc2c(=O)[nH]c(-c3ccc(N4CCC(N(C)C)C4)nc3)cc12` (stereo not drawn) [IQ-008] reads less than 20 nM. The result for `CC(C)(C)OC(=O)N1CCN(c2ccc(-c3cc4c(Cl)cccc4c(=O)[nH]3)cc2)CC1` [IQ-010] reads less than 500 nM; that for `Cc1cccc2c(=O)[nH]c(-c3ccc(N4CCN(CCO)CC4)nc3)cc12` [IQ-011, 3-{6-[4-(2-Hydroxy-ethyl)-piperazin-1-yl]-pyridin-3-yl}-5-methyl-2H-isoquinolin-1-one], less than 20 nM; that for `O=c1[nH]c(-c2ccc(N3CCN(CCO)CC3)nc2)cc2c(Cl)cccc12` [IQ-012], less than 50 nM. The result for `Cc1cccc2c(=O)[nH]c(-c3ccc(N4CCN(C(=O)OC(C)(C)C)CC4)cc3)cc12` [IQ-013] reads less than 50 nM; that for `O=c1[nH]c(-c2ccc(N3CCNCC3)cc2)cc2c(Cl)cccc12` [IQ-014], less than 20 nM. In the case of `CC(=O)N1CCN(c2ccc(-c3cc4c(Cl)cccc4c(=O)[nH]3)cc2)CC1` [IQ-015], the half-maximal inhibitory concentration (IC50) is less than 50 nM.

As to `Cc1cccc2c(=O)[nH]c(-c3ccc(N4CCNCC4)cc3)cc12` [IQ-016], the half-inhibitory concentration (IC50) is < 500 nM and < 50 nM and < 20 nM and 12 nM. The result for `Cc1cccc2c(=O)[nH]c(-c3ccc(N4CCN(CCN(C)C)CC4)nc3)cc12` [IQ-018] reads less than 20 nM; that for `Cc1cccc2c(=O)[nH]c(-c3cnc(N4CCN(C(=O)OC(C)(C)C)CC4)c(F)c3)cc12` [IQ-020], less than 500 nM; that for `Cc1cccc2c(=O)[nH]c(-c3cnc(N4CCNCC4)nc3)cc12` [IQ-026], less than 50 nM. Turning to `Cc1cccc2c(=O)[nH]c(-c3ccc(N4CCNCC4)nc3)cc12` [IQ-028-1], the IC50 was less than 20 nM. The result for `CNCc1ccc(-c2cc3c(C)cccc3c(=O)[nH]2)cc1` [IQ-029] reads less than 20 nM; that for `Cc1cccc2c(=O)[nH]c(-c3ccc(CN4CCCC4)c(F)c3)cc12` [IQ-039], less than 500 nM; that for `Cc1cccc2c(=O)[nH]c(-c3ccc(CN4CCN(C(=O)OC(C)(C)C)CC4)cc3)cc12` [IQ-040], less than 500 nM. As for `Cc1cccc2c(=O)[nH]c(-c3ccc(CCN4CCCC4)cc3)cc12` [IQ-041], the figure is less than 500 nM.

On to `Cc1cccc2c(=O)[nH]c(-c3ccc(CCN4CCOCC4)cc3)cc12` [IQ-042], for which the half-inhibitory concentration (IC50) is less than 50 nM. Molecule `CC(C)(C)OC(=O)N1CCN(Cc2ccc(-c3cc4c(Cl)cccc4c(=O)[nH]3)cc2)CC1` [IQ-044] yielded an IC50 of less than 500 nM. The result for `CC(=O)N1CCN(Cc2ccc(-c3cc4c(Cl)cccc4c(=O)[nH]3)cc2)CC1` [IQ-045] reads less than 50 nM; that for `CC(C)(C)OC(=O)N1CCN(Cc2ccc(-c3cc4c(C5CC5)cccc4c(=O)[nH]3)cc2)CC1` [IQ-047], less than 500 nM; that for `O=c1[nH]c(-c2ccc(CN3CCNCC3)cc2)cc2c(C3CC3)cccc12` [IQ-049], less than 500 nM.

In turn, `Cc1cccc2c(=O)[nH]c(-c3ccc(CN4CCN(C5CC5)CC4)cc3)cc12` [IQ-050] yielded an IC50 of less than 50 nM. As for `Cc1cccc2c(=O)[nH]c(-c3ccc(CN4CCNCC4C)cc3)cc12` (stereo not drawn) [IQ-051-1], the figure is less than 20 nM; as for `Cc1cccc2c(=O)[nH]c(-c3ccc(CN4CCN(C)C(C)C4)cc3)cc12` (stereo not drawn) [IQ-052], less than 50 nM. As for `CC(=O)N1CCN(Cc2ccc(-c3cc4c(C)cccc4c(=O)[nH]3)cc2)CC1` [IQ-055, 3-[4-(4-Acetyl-piperazin-1-ylmethyl)-phenyl]-5-methyl-2H-isoquinolin-1-one], the figure is less than 20 nM. Take `CN1CCN(Cc2ccc(-c3cc4c(Cl)cccc4c(=O)[nH]3)cc2)C(=O)C1` [IQ-056]: the IC50 is less than 50 nM. As for `Cc1cccc2c(=O)[nH]c(-c3ccc(CN4CCNCC4)c(F)c3)cc12` [IQ-059], the figure is less than 50 nM; as for `Cc1cccc2c(=O)[nH]c(-c3ccc(CN4CCCN(C(=O)OC(C)(C)C)CC4)cc3)cc12` [IQ-060], less than 500 nM; as for `Cc1cccc2c(=O)[nH]c(-c3ccc(CN4CCCNCC4)cc3)cc12` [IQ-062], less than 20 nM. The result for `Cc1cccc2c(=O)[nH]c(-c3ccc(CN4CC(C)NC(C)C4)cc3)cc12` (stereo not drawn) [IQ-063] reads less than 500 nM. The result for `Cc1cccc2c(=O)[nH]c(-c3ccc(CN4CCCN(C)CC4)cc3)cc12` [IQ-065] reads less than 50 nM; that for `Cc1cccc2c(=O)[nH]c(-c3ccc(C(C)N4CCNCC4)cc3)cc12` (stereo not drawn) [IQ-067], less than 50 nM.

Take `Cc1cccc2c(=O)[nH]c(-c3ccc(CN4CCN(C(=O)OC(C)(C)C)CC4)nc3)cc12` [IQ-071]: the IC50 was less than 500 nM.

In turn, `Cc1cccc2c(=O)[nH]c(-c3ccc(CN4CCNCC4)nc3)cc12` [IQ-072] had a concentration for half-maximal inhibition (IC50) of less than 500 nM. The result for `Cc1cccc2c(=O)[nH]c(-c3ccc(CN4CCNCC4=O)cc3)cc12` [IQ-073] reads less than 50 nM; that for `Cc1cccc2c(=O)[nH]c(-c3ccc(C(C)(C)N4CCNCC4)cc3)cc12` [IQ-075, 5-Methyl-3-[(4-(1-methyl-1-piperazin-1-yl]-ethyl)-phenyl]-2H-isoquinolin-1-one], less than 500 nM; that for `Cc1cc(F)cc2c(=O)[nH]c(-c3ccc(CN4CCN(C(=O)OC(C)(C)C)CC4)cc3)cc12` [IQ-076], less than 500 nM. The result for `CC(C)(C)OC(=O)N1CCN(Cc2ccc(-c3cc4c(F)ccc(F)c4c(=O)[nH]3)cc2)CC1` [IQ-077] reads less than 500 nM; that for `Cc1cc(F)cc2c(=O)[nH]c(-c3ccc(CN4CCNCC4)cc3)cc12` [IQ-078, 7-Fluoro-5-methyl-3-(4-piperazin-1-ylmethyl-phenyl)-2H-isoquinolin-1-one], less than 50 nM.

In turn, `O=c1[nH]c(-c2ccc(CN3CCNCC3)cc2)cc2c(F)ccc(F)c12` [IQ-079] had an IC50 of less than 500 nM. As for `O=c1[nH]c(-c2ccc(CN3CCNCC3)cc2)cc2c(Cl)cccc12` [IQ-083], the figure is less than 50 nM.

For `Cc1cccc2c(=O)[nH]c(-c3ccc(CN4CCNC(C)C4)cc3)cc12` (stereo not drawn) [IQ-084-3], the IC50 is less than 50 nM.

Molecule `Cc1cccc2c(=O)[nH]c(-c3ccc(CN4C[C@@H]5C[C@H]4CN5C(=O)OC(C)(C)C)cc3)cc12` [IQ-085] showed an IC50 of less than 50 nM.

Take `Cc1cccc2c(=O)[nH]c(-c3ccc(CN4CCN5CCCC5C4)cc3)cc12` (stereo not drawn) [IQ-087]: the IC50 is less than 50 nM.

Regarding `Cc1cccc2c(=O)[nH]c(-c3ccc(CN4CCC5(CCN(C)C5)C4)cc3)cc12` (stereo not drawn) [IQ-088], the IC50 is less than 20 nM. The result for `Cc1cccc2c(=O)[nH]c(-c3ccc(CN4C[C@@H]5CN(C(=O)OC(C)(C)C)C[C@@H]5C4)cc3)cc12` [IQ-089] reads less than 500 nM; that for `Cc1cccc2c(=O)[nH]c(-c3ccc(CN4C[C@H]5CNC[C@H]5C4)cc3)cc12` [IQ-090], less than 50 nM. The result for `CN1CCC(CNC(=O)c2ccc(-c3cc4c(Cl)cccc4c(=O)[nH]3)cc2)CC1` [IQ-091, 4-(5-Chloro-1-oxo-1,2-dihydro-isoquinolin-3-yl)-N-(1-methyl-piperidin-4-ylmethyl)-benzamide] reads less than 500 nM; that for `Cc1cccc2c(=O)[nH]c(-c3ccc(C(=O)N(C)CC4CCN(C(=O)OC(C)(C)C)CC4)cc3)cc12` [IQ-092, 4-({Methyl-[4-(5-methyl-1-oxo-1,2-dihydro-isoquinolin-3-yl)-benzoyl]-amino}-methyl)-piperidine-1-carboxylic acid tert-butyl ester], less than 500 nM; that for `Cc1cccc2c(=O)[nH]c(-c3ccc(C(=O)N(C)CC4CCN(C)CC4)cc3)cc12` [IQ-095, N-Methyl-4-(5-methyl-1-oxo-1,2-dihydro-isoquinolin-3-yl)-N-(1-methyl-piperidin-4-ylmethyl)-benzamide], less than 50 nM. The result for `Cc1cccc2c(=O)[nH]c(-c3ccc(C(=O)N(C)C4CCNCC4)cc3)cc12` [IQ-096, N-Methyl-4-(5-methyl-1-oxo-1,2-dihydro-isoquinolin-3-yl)-N-piperidin-4-yl-benzamide] reads less than 50 nM; that for `Cc1cccc2c(=O)[nH]c(-c3ccc(C(=O)N(C)CC4CCOCC4)cc3)cc12` [IQ-097, N-Methyl-4-(5-methyl-1-oxo-1,2-dihydro-isoquinolin-3-yl)-N-(tetrahydro-pyran-4-ylmethyl)-benzamide], less than 20 nM. For the molecule `Cc1cccc2c(=O)[nH]c(-c3ccc(C(=O)N(C4CC4)C4CCN(C)CC4)cc3)cc12` [IQ-098], the half-maximal inhibitory concentration (IC50) was less than 50 nM. The result for `Cc1cccc2c(=O)[nH]c(-c3ccc(C(=O)N(C)C4CCN(C)CC4)nc3)cc12` [IQ-099] reads less than 20 nM. The result for `CN1CCN(C(=O)c2ccc(-c3cc4c(Cl)cccc4c(=O)[nH]3)cc2)CC1` [IQ-101] reads less than 50 nM.

The molecule `Cc1cccc2c(=O)[nH]c(-c3ccc(C(=O)N4CCN(C)CC4)cc3)cc12` [IQ-104] came in with a half-maximal inhibitory concentration (IC50) of less than 20 nM. `Cc1cccc2c(=O)[nH]c(-c3ccc(C(=O)N4CCN(C5CC5)CC4)cc3)cc12` [IQ-105] showed a concentration for half-maximal inhibition (IC50) of less than 50 nM.
